{"source": "paper PMC7770057", "about": "(Journal of medicinal chemistry, 2020)", "key": {"[1]": {"tested_on": "MEK1/2", "details": "HT-29 cells, 0.3, 1 and 3 μM; previous study; cited from earlier work"}, "[2]": {"tested_on": "SK-MEL-28 cells", "test": "Antiproliferation", "format": "cell-based", "details": "Homo sapiens, SK-MEL-28, 72 h, read-out: SK-MEL-28 GI50"}}, "data": [{"smiles": "Cc1ncsc1-c1ccc(CNC(=O)[C@@H]2C[C@@H](O)CN2C(=O)[C@@H](NC(=O)CCCCCCCCCCNCCCONC(=O)c2ccc(F)c(F)c2Nc2ccc(I)cc2F)C(C)(C)C)cc1", "note": "[Compound 14, (2S,4R)-1-((S)-20-(tert-Butyl)-1-(3,4-difluoro-2-((2-fluoro-4-iodophenyl)amino)phenyl)-1,18-dioxo-3-oxa-2,7,19-triazahenicosan-21-oyl)-4-hydroxy-N-(4-(4-methylthiazol-5-yl)benzyl)pyrrolidine-2-carboxamide]", "values": [{"measurement": "MEK1/2 degradation (Western blot, words)", "setting": "[1]", "value": "significantly degrade MEK1/2 protein levels"}]}, {"smiles": "CCCS(=O)(=O)Nc1ccc(F)c(C(=O)c2c[nH]c3ncc(-c4ccc(Cl)cc4)cc23)c1F", "note": "[PLX4032]", "values": [{"measurement": "GI50", "setting": "[2]", "value": "~100", "unit": "nM"}]}]}
